Measurements from doi:10.1101/2023.06.30.547126, “FruitFire: a luciferase based on a fruit fly metabolic enzyme” (bioRxiv, 2023).

Assays:
[1] = molecular target: T1, Fluc (Photinus pyralis, UniProt P08659); test: live-cell bioluminescence imaging (IVIS-100); assay type: cell-based; details: transfected CHO cells, 0.122-250 μM substrate
T1 construct: luc2 gene in pcDNA3.1, transfected CHO cells

[2] = molecular target: T2, CG6178 (Drosophila melanogaster, UniProt Q9VCC6); test: X-ray crystal structure, […] Å; assay type: binding; details: active site; co-purified fatty acid adenylated with 10 mM ATP, ligand modelled as best fit to density; pH 7.5, 25 °C
T2 construct: gene Dmel\CG6178; full length, 544 residues; GST fusion from pGEX-6P-1 in E. coli BL21(DE3), GST cleaved with PreScission protease
T2 sequence (Q9VCC6 1-544): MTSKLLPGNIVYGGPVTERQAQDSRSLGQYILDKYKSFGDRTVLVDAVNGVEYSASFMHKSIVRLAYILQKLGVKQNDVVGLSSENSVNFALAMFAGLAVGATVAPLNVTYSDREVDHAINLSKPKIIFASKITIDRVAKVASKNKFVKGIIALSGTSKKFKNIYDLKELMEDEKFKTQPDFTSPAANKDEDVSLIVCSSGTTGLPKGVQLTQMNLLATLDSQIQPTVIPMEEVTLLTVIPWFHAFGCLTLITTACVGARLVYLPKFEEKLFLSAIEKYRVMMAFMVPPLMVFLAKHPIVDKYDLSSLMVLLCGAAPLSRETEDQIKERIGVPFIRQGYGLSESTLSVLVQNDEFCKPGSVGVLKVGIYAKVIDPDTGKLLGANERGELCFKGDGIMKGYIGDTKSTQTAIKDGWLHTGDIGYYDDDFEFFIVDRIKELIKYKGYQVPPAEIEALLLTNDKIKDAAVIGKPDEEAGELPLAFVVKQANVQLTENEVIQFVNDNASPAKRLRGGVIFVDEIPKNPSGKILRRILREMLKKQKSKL

T1 sequence (P08659 whole entry): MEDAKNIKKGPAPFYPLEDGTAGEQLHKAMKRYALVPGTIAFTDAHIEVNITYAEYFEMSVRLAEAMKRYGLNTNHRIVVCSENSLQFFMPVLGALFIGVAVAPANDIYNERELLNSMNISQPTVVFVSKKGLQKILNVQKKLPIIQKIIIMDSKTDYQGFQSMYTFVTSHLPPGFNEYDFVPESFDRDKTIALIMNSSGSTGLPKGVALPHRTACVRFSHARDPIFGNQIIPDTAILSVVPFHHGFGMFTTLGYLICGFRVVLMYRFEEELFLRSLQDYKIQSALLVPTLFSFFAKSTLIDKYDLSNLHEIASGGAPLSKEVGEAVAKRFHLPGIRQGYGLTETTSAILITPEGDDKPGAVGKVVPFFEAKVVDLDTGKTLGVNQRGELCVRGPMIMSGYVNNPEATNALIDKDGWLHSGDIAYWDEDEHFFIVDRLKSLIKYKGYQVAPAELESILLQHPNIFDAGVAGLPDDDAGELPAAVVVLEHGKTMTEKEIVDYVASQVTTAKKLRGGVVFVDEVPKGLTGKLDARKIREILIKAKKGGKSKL

Compound | live-cell bioluminescence imaging (IVIS-100) [1] | X-ray crystal structure, 2.5 Å [2]
CN1CCc2cc3nc(C4=N[C@@H](C(=O)O)CS4)sc3cc21 [CycLuc2] | relative performance of all three enzymes with CycLuc2 | 
CCCCCCCC(=O)OP(=O)(O)OC[C@H]1O[C@@H](n2cnc3c(N)ncnc32)[C@H](O)[C@@H]1O [octanoyl-AMP] |  | octanoyl-AMP (C8) and an ethylene glycol in the active site is most consistent with the data
